Measurements from patent US5646316A, “Bile acid inhibitors of metalloproteinase enzymes” (OsteoArthritis Sciences, Inc., priority 1995, dated 1997).
Where two headings read alike, the source gives them in different places.

Legend:
stromelysin = stromelysin (Homo sapiens, UniProt P08254); assay: Assay of Stromelysin Inhibition Activity (fluorogenic substrate hydrolysis); format: biochemical; conditions: for inhibition at 10 µM: read-out: percent inhibition of stromelysin
Experimental: (§1) Stromelysin was first activated by trypsin. This was done by preparing a reaction mixture in B-150 (B-150 consists of 150 mM NaCl, 20 mM Tris at pH 7.8 and 0.02% sodium azide) containing a final concentration of 4 μg/mL trypsin, 1.48 μg/mL of stromelysin, and 3.15 mM CaCl2. The reaction was incubated for 30 minutes at 37° C. and then quenched by adding soybean trypsin inhibitor to a final concentration of 43.6 μg/mL. ZnCl2 was added to the reaction mixture for a total concentration of 0.24 μM.
(§2) Following preparation of the solution of activated stromelysin, assay solutions were prepared for each inhibitor being tested. A control was also prepared. First, […] of activated stromelysin (about 45 μL from the solution of activated stromelysin) were aliquotted per assay tube. A 2.5 mM solution in 100% dimethyl sulfoxide (DMSO) was prepared for each inhibitor being tested and 1 μL from each inhibitor solution was added to one of the assay tubes. In addition, 1 μL of 100% DMSO was added to the control assay tube. All assay tubes were then pre-incubated for 5 minutes.
(§3) 5 μL of a previously prepared 50 μM solution of substrate in 15% DMSO were added to each assay tube. The substrate was a methoxycumarin developed by Knight et al. FEBS Lett. 296:263-66 (1992). The tubes were then incubated for 60 minutes, at which time the reaction was stopped with the addition of 750 μL of 0.1M NaAc pH 4.0 buffer.
(§4) Substrate hydrolysis was assessed by fluorescence using a slit width of 10:10, excitation at 328 nm and emission at 393 nm. The results of these assays are listed in Table I as percent inhibition at 10 μM of the bile acid provided compound tested or as the IC50.

[1] = system: bovine cartilage explants; assay: Bovine Cartilage Explant Assay (35S-GAG release, rhIL-1α stimulated; tissue culture); format: cell-based; conditions: Bos taurus, read-out: percent inhibition of extracellular matrix damage, Tissue Culture
From the text: A tissue culture assay was used to measure the ability of the compounds of the present invention to slow the degradation of the extracellular matrix by metalloproteinases. This assay measured the amount of ^35 S-glycosaminoglycan (^35 S-GAG) released from labeled bovine cartilage explants.
Knee joints from a 1 to 3 week old calf were obtained immediately after sacrifice from the Abattoir and then transported on ice. The intact joints were washed well with tap water and soaked in 50% (v/v) Povidine iodine solution, obtained from Burre National, Inc., Baltimore, Md. All subsequent steps were performed in a laminar flow tissue culture hood using standard sterile technique. The joint was immobilized in a shank holder and the joint capsule was cut open to expose the articular cartilage. Cartilage explant plugs, approximately 15 mg wet weight, were removed from the flat articulating surfaces in the lower-most region of the knee joint using a sterile steel cork-borer and collected in a 250 mL roller bottle containing about 100 mL fresh Delbecco's minimum essential medium (DMEM), obtained from Gibco BRC, Life Technologies, Gaithersburg, Md., containing 4.5 g/1 (D)-glucose and (L)-glutamine, without sodium pyruvate. The fresh media also contained enough Hepes buffer and sodium bicarbonate such that the pH was about 7.4. The media was then further supplemented just before use with 100 units Penicillin, 100 μg Streptomycin, and 50 μg (L)-ascorbic acid per mL of medium.
Once collected, the explant plugs were washed four times with 50 mL fresh DMEM. The plugs were then placed in the incubator for a minimum of 1 hour to equilibrate, before proceeding to make disks from the articulating surface of each plug. A 1 mm thick disk was sliced from individual plugs from the end that was the articulating surface of the joint. The plug was held steady in the sterile template (4 mm diameter×1.5 mm deep) using sterile forceps. A scalpel blade was used to carefully slice off the disk. Only the superficial articulating surface responded well in culture.
Individual disks obtained were transferred to a tissue culture flask containing about 100 mL fresh media. The flask containing the disks was placed in an incubator at 37° C. (with 5% CO2, 95% air) and allowed to equilibrate overnight and at least one additional day before labeling. When ready to label, the old media was replaced with 50 mL fresh media containing about 500 μCi ^35 S-Sodium Sulfate. The plugs were labeled in bulk for about 48 hours. The next morning, the "hot" media was removed and replaced with fresh "cold" media. The disks were again allowed to equilibrate overnight before being used for actual experiments.
The media in which the disks were stored was changed immediately prior to performing the assay. The disks were then returned to the incubator until the test media and the two control media had been prepared. The test media consisted of a bile acid or bile acid derivative (50 μM) being tested for its ability to inhibit extracellular matrix degradation and concomitant recombinant human Interleukin rhIL-1α (5 ng/mL) in fresh DMEM solution. The control media were identical to the test media, except that the first control media lacked rhIL-1α and the second control media lacked an inhibitor, i.e. a bile acid or bile acid derivative. 250 μL of each of the test and control media were transferred to separate 96-well TC plates. Flamed forceps were used to transfer a disk from the incubator to each 96-well TC plates that had been filled with either the test media or one of the two control media.
The TC plates were then placed in the incubator and cultured for 3-4 days (initial incubation with rhIL-1α alpha takes at least 3 days to stimulate endogenous metalloproteinases). A 50 μL aliquot of media from each TC plate was saved and counted. The rest of the media was removed with a suction device.
The cartilage disks from each TC plate were also saved for counting. […]

gelatinase (72 (Kd)) = molecular target: T1, gelatinase (72 (Kd) (Homo sapiens, UniProt P08253)); assay: Assay of Gelatinase Inhibition Activity (72 Kd gelatinase); format: biochemical; conditions: for inhibition at 10 µM: read-out: percent inhibition of gelatinase
T1 sequence (P08253 110-660): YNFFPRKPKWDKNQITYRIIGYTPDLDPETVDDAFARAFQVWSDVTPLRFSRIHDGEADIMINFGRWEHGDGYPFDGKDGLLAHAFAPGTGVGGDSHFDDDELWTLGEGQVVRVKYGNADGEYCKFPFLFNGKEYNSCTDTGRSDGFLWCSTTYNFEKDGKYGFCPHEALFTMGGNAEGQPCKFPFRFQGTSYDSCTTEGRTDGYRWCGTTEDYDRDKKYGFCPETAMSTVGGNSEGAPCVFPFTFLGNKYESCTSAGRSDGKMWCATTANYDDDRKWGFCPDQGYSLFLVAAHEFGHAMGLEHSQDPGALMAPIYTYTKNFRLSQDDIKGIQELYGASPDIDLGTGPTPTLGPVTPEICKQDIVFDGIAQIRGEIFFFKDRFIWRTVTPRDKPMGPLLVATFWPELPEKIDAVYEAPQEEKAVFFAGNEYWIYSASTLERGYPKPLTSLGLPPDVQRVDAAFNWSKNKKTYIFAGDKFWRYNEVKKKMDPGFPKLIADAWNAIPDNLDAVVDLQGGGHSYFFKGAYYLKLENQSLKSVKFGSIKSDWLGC
Experimental: as §1, §2, §3, §4
The assay procedure for gelatinase (72 (Kd) was the same as described in Example 13 for stromelysin except that the trypsin activation was performed for 60 minutes. In addition, the incubation of the assay tubes at 37° C. was for 60 minutes, and the final enzyme concentration was 3 nm. The results of these assays are listed in Table I as percent inhibition at 10 μM of the compound tested.

collagenase = assay: Assay of Collagenase Inhibition Activity; format: biochemical; conditions: at 10 μM of compound; 45 minutes at 37° C.
Experimental: as §1, §2, §3, §4
The assay procedure for collagenase was the same as described in Example 13 for stromelysin except that the trypsin activation was performed for 45 minutes. In addition, the incubation of the assay tubes at 37° C. was only for 45 minutes, and the final enzyme concentration is 6 nm. The results of these assays are provided in Table I as percent inhibition at 10 μM of the compound tested.

chondrocytes = assay: Chondrocyte Cell Culture Matrix Breakdown Assay (35S release, rhIL-1α stimulated); format: cell-based, calf; conditions: at 50 μM; rhIL-1α 1 ng/ml; 22-24 hours
Experimental: A cell culture assay was used to measure the ability of compounds to slow the degradation of the extracellular matrix by a metalloproteinase. This assay measured the amount ^35 S released from chondrocytes grown in a media with ^35 S labeled sodium sulfate. The cell culture assay was carried out as follows:
Two or three 1 to 3 week old calf joints were obtained from an abattoir. The proximal end of the shank was at about 4-5" long to facilitate immobilization in the holder. The joint was kept cool and transported on ice. The exterior of the intact joints was washed well with a suitable anti-microbial soap, rinsed clean with warm water, rinsed in betadine and then finally rinsed with 70% ethanol. Up to this point all steps were done in a manner to ensure that the joint was kept as clean as possible. All subsequent steps were performed in a sterile field (i.e., in a Edgeguard laminar flow tissue culture hood). The joint was immobilized and the synovial fluid was aspirated with a needle and syringe. The joint was then cut open to expose the articular cartilage using a #21 scalpel. Using locking hemostats, forceps and a #15 scalpel, the cartilage was excised in full thickness pieces. Care was taken not to cut too deep because bleeding would have occurred if the subchondral bone, was penetrated. The cartilage pieces were placed into a 50 mL centrifuge tube containing 25 mL of Delbecco's phosphate buffered saline (D-PBS) supplemented with 1% antibiotic solution (penicillin, streptomycin and fungizone; GIBCO/BRL). The slices from each joint were then placed into separate 50 mL centrifuge tubes. The D-PBS was decanted and replaced with 25 mL of fresh D-PBS supplemented with antibiotics and subsequently agitated gently.
The cartilage pieces were transferred to a fresh 50 mL centrifuge tube and rinsed once more with 25 mL of D-PBS minus antibiotics. An enzymatic digestion solution containing 1 mg/mL of hyaluronidase in serum-free 1:1 DMEM/Ham's F-12 (DMEM/F12) was prepared. This solution was filter sterilized with […] Milex--GV filter and kept on ice until ready to use. The cartilage pieces were digested with approximately 5 mL of hyaluronidase solution per joint for 2×15 minutes at 37° C. in the 50 mL centrifuge tube with gentle agitation at the 15 minute mark. This procedure removed residual hyaluronic acid from the surface of the chips. The enzymatic digestion solution was then aspirated and the cartilage pieces were rinsed with 25 mL of D-PBS.
A second enzymatic digestion solution containing 2.5 mg trypsin and 2 mg collagenase P per mL serum-free DMEM/F12 was prepared. This solution was also filter sterilized with a […] Millex--GV filter and kept on ice until ready to use. The cartilage pieces were digested with approximately 5 mL of trypsin: collagenase solution per joint for 2×15 minutes at 37° C. in the 50 mL centrifuge tube with gentle agitation at the 15 minute mark. This procedure removed the synovial fibroblasts and any adherent connective tissue from the surface of the chips. The enzymatic digestion solution was then carefully removed and saved and the cartilage pieces were rinsed with 25 mL of D-PBS.
A third enzymatic solution containing 2 mgs of collagenase P (BMB) per mL serum-free DMEM/F12 was prepared. This solution was filter sterilized with a […] Millex--GV filter and kept on ice until ready to use. The pre-digested cartilage pieces were finally digested with approximately 20 mL of enzymatic digestion solution per joint for 5-6 hours at 37° C. in a Bellco stirring digestion flask, at which point the cartilage was fully digested away.
The enzymes in the synovial fibroblast and chondrocyte digest were neutralized by addition of an equal volume of DMEM/F12 supplemented with 5% fetal bovine serum. Fibroblasts were plated in DMEM at a cellular density of 6.6×10^3 cells per cm^2. […]

[2] = at 10 μM of compound, 60 minutes at 37° C.

Sequence of stromelysin (P08254 100-477): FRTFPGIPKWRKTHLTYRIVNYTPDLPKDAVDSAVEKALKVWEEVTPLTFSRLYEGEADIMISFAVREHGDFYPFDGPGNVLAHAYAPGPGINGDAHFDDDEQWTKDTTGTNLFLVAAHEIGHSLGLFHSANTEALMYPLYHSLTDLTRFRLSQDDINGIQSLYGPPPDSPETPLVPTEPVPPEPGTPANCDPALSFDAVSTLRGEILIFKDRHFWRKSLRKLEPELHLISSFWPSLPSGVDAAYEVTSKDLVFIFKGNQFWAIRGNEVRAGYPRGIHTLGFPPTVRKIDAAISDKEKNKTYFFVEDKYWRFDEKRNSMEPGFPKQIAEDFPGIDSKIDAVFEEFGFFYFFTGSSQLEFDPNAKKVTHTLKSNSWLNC

Compound | inhibition at 10 µM (stromelysin; at 10 μM of compound) | inhibition at 10 µM (gelatinase (72 (Kd)); [2]) | percent inhibition of collagenase (collagenase) | inhibition at 50 µM [1] | inhibition at 10 µM (gelatinase (72 (Kd))) | further results
C[C@H](CCC(=O)N[C@@H](Cc1c[nH]c2ccccc12)C(=O)NO)[C@H]1CC[C@H]2[C@@H]3CC[C@@H]4C[C@H](O)CC[C@]4(C)[C@H]3CC[C@]12C [Compound 18, Lithocholyl-(L)-Tryptophane Hydroxamic Acid] | 90% | 41% | 35% |  |  | inhibition at 50 µM ([1]; at 50 μM, rhIL-1α 5 ng/mL, 3-4 days): 3%
C[C@H](CCC(=O)NOCc1ccccc1)[C@H]1CC[C@H]2[C@@H]3CC[C@@H]4C[C@H](O)CC[C@]4(C)[C@H]3CC[C@]12C [Compound 11, Lithocholyl-O-Benzylhydroxamate] | 25% | 21% | 13% |  |  | 
C[C@H](CCC(=O)O)[C@H]1CC[C@H]2[C@@H]3[C@H](O)C[C@@H]4C[C@H](O)CC[C@]4(C)[C@H]3C[C@H](O)[C@]12C [Compound 7, Cholic acid, reference compound] |  |  | 21% | -90% | 4% | inhibition at 10 µM (stromelysin): 24%
C[C@H](CCC(=O)N[C@@H](Cc1c[nH]c2ccccc12)C(=O)O)[C@H]1CC[C@H]2[C@@H]3CC[C@@H]4C[C@H](O)CC[C@]4(C)[C@H]3CC[C@]12C [Compound 17, Lithocholyl-(L)-Tryptophane] |  |  |  | 8% | 5% | 
CC(C)C(CC(=O)NO)NC(=O)CC[C@@H](C)[C@H]1CC[C@H]2[C@@H]3CC[C@@H]4C[C@H](O)CC[C@]4(C)[C@H]3CC[C@]12C (stereo partly drawn) [Compound 21, Lithocholyl-β-Leucine Hydroxamic Acid] |  |  |  |  |  | IC50 (stromelysin; 60 minutes incubation): 3 µM; IC50 (gelatinase (72 (Kd)); 60 minutes at 37° C.): 7 µM; percent inhibition, Cell Culture (chondrocytes): 88%
